For this assay, the target named is T1, human 11β-HSD1 (Homo sapiens, UniProt P28845).
T1 construct: expressed in transfected cells; host or cells: CHO cells (microsomes)
The experiment in a line: Inhibition of microsomal preparation of 11β-HSD1 (SPA, Biological Test Example 1). The format is biochemical. To be noted: for inhibition at 0.1 µM: 100 nM; for IC50: microsomes from CHO cells overexpressing human 11β-HSD1, read-out: IC50 Range; for inhibition at 0.111 µM: 111 nM. The method, boiled down: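 Microsomes from CHO cells overexpressing human 11β-HSD1 reduced [3H]cortisone (160 nM in substrate solution, with 2 mM NADPH, HEPES pH 7.4) for 90 min at rt after a 10 min compound preincubation. Compounds were run as 8-point half-log DMSO dilutions from 0.1 mM. 18β-glycyrrhetinic acid stopped the reaction, and anti-cortisol antibody SPA beads read [3H]cortisol.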

The structures appear in SMILES notation. Bounds are passed on as bounds.

As usually defined, the inhibition is the change of the read-out against control, counted positive when it falls. A higher inhibition goes with a strong effect. A word on the IC50: it is the concentration needed to halve the response being measured.

T1 sequence (P28845 whole entry): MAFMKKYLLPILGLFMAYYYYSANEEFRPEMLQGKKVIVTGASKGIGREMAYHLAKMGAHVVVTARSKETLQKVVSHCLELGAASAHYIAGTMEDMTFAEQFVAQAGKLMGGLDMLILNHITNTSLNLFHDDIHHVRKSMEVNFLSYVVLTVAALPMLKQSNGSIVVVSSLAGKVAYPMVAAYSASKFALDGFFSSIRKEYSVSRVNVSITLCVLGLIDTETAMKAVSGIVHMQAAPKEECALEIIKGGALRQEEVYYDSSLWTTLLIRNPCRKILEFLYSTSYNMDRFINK

With `O=C(O)CC1CC2(CCN(C(=O)Cc3ccc(Cl)cc3C(F)(F)F)CC2)c2c(Cl)cccc21` (centres unmarked) [EXAMPLE 54, 2-(7-chloro-1′(2-(4-chloro-2-(trifluoromethyl)phenyl)acetyl)-2,3-dihydrospiro[indene-1,4′-piperidine]-3-yl)acetic acid], the inhibition at 0.1 µM stood at 71.7% and the IC50 is less than 100 nM.
For the compound `CN1C(=O)c2cccc(Cl)c2C12CCN(C(=O)/C=C/c1c(Cl)cccc1Cl)CC2` [EXAMPLE 26, (E)-7-chloro-1′-(3-(2,6-dichlorophenyl)acryloyl)-2-methylspiro[isoindoline-1,4′-piperidin]-3-one], 0.111 µM produced 79% inhibition and the half-maximal inhibitory concentration (IC50) was less than 100 nM.
For `O=C(O)CC1CC2(CCN(C(=O)/C=C/c3ccccc3C(F)(F)F)CC2)c2cc(F)ccc21` (racemic) [EXAMPLE 11, (±)-(E)-2-(6-fluoro-1′-(3-(2-(trifluoromethyl)phenyl)acryloyl)-2,3-dihydrospiro[indene-1,4′-piperidine]-3-yl)acetic acid], in that order: 75.1% and less than 100 nM.
On to `O=C1CC2(CCN(C(=O)CNc3ccccc3C(F)(F)F)CC2)c2c(Br)cccc21` [EXAMPLE 107], for which the IC50 was in the range of 100 to 1000 nM.
Regarding `O=C(O)CC1CC2(CCN(C(=O)CCc3ccccc3Cl)CC2)c2c(Cl)cccc21` (centres unmarked) [EXAMPLE 74, 2-(7-chloro-1′-(3-(2-chlorophenyl)propanoyl)-2,3-dihydrospiro[indene-1,4′-piperidine]-3-yl)acetic acid], the inhibition at 0.111 µM worked out at 89.5% and the IC50 was less than 100 nM.
Turning to `O=C(O)CC1CC2(CCN(C(=O)CCc3ccc(Cl)cc3Cl)CC2)c2c(Cl)cccc21` (centres unmarked) [EXAMPLE 75, 2-(7-chloro-1′-(3-(2,4-dichlorophenyl)propanoyl)-2,3-dihydrospiro[indene-1,4′-piperidine]-3-yl)acetic acid], the inhibition at 0.111 µM came to 52.2% and the half-maximal inhibitory concentration (IC50) is less than 100 nM.
For `O=C(O)CC1CC2(CCN(C(=O)/C=C/c3ccccc3C(F)(F)F)CC2)c2c(Br)cccc21` (single isomer, unassigned; isomer 1) [EXAMPLE 2.1, (±)-(E)-2-(7-bromo-1′-(3-(2-(trifluoromethyl)phenyl)acryloyl)-2,3-dihydrospiro[indene-1,4′-piperidine]-3-yl)acetic acid isomer 1], 0.1 µM produced 96.6% inhibition and the half-inhibitory concentration (IC50) was less than 100 nM.
Turning to `O=C(O)CC1CC2(CCN(C(=O)CCc3ccccc3C(F)(F)F)CC2)c2c(Br)cccc21` (centres unmarked) [EXAMPLE 58, 2-(7-bromo-1′-(3-(2-(trifluoromethyl)phenyl)propanoyl)-2,3-dihydrospiro[indene-1,4′-piperidine]-3-yl)acetic acid], at 0.1 µM the inhibition was 97.1%, the inhibition at 0.111 µM turned out to be 87.4% and the IC50 was less than 100 nM.
Turning to `CNCCN(C)C(=O)CC1CC2(CCN(C(=O)/C=C/c3ccccc3C(F)(F)F)CC2)c2c(Cl)cccc21` (racemic) [EXAMPLE 7, (±)-(E)-2-(7-chloro-1′-(3-(2-(trifluoromethyl)phenyl)acryloyl)-2,3-dihydrospiro[indene-1,4′-piperidine]-3-yl)-N-methyl-N-(2-(methylamino)ethyl)acetamide], the inhibition at 0.111 µM was 87.3% and the 50% inhibitory concentration (IC50) was less than 100 nM.
For `NC(=O)CC1CC2(CCN(C(=O)/C=C/c3ccccc3C(F)(F)F)CC2)c2c(Cl)cccc21` (racemic) [EXAMPLE 6, (±)-(E)-2-(7-chloro-1′-(3-(2-(trifluoromethyl)phenyl)acryloyl)-2,3-dihydrospiro[indene-1,4′-piperidine]-3-yl)acetamide], in that order: 97.4% and less than 100 nM.
For `O=C(O)CC1CC2(CCN(C(=O)/C=C/c3cccc(Cl)c3Cl)CC2)c2c(Cl)cccc21` (racemic) [EXAMPLE 9, (±)-(E)-2-(7-chloro-1′-(3-(2,3-dichlorophenyl)acryloyl)-2,3-dihydrospiro[indene-1,4′-piperidine]-3-yl)acetic acid], in that order: 77.8% and less than 100 nM.
The like results for `CCN1C(=O)C2(CCN(C(=O)CCc3ccccc3C(F)(F)F)CC2)c2cc(C(=O)OC)ccc21` [EXAMPLE 78, Methyl 1-ethyl-2-oxo-1′-(3-(2-(trifluoromethyl)phenyl)propanoyl)spiro[indoline-3,4′-piperidine]-5-carboxylate] were, in that order, 52.4% and less than 100 nM.
For `NC1CC2(CCN(C(=O)Cc3ccccc3C(F)(F)F)CC2)c2c(Br)cccc21` (racemic) [EXAMPLE 46, (±)-1-(3-amino-7-bromo-2,3-dihydrospiro[indene-1,4′-piperidine]-1′-yl)-2-(2-(trifluoromethyl)phenyl)ethanone], 0.111 µM produced 78.6% inhibition and the IC50 is less than 100 nM.
For `CC(C)(C)OC(=O)N1Cc2ccccc2C2(CCN(C(=O)CCc3ccccc3C(F)(F)F)CC2)C1` [EXAMPLE 57, tert-butyl 1′-(3-(2-(trifluoromethyl)phenyl)propanoyl)-1H-spiro[isoquinoline-4,4′-piperidine]-2(3H)-carboxylate], in that order: 37.6% and 100 to 1000 nM.
The like results for `Cc1cccc(Cl)c1CNC(=O)N1CCC2(CC1)CC(CC(=O)O)c1cccc(Br)c12` (centres unmarked) [EXAMPLE 91, 2-(7-bromo-1′-(2-chloro-6-methylbenzylcarbamoyl)-2,3-dihydrospiro[indene-1,4′-piperidine]-3-yl)acetic acid] were, in that order, 64.1% and less than 100 nM.
For `CCOC(=O)CC1CC2(CCN(C(=O)NCc3ccccc3OC(C)C)CC2)c2c(Br)cccc21` (centres unmarked) [EXAMPLE 95, Ethyl 2-(7-bromo-1′-(2-isopropoxybenzylcarbamoyl)-2,3-dihydrospiro[indene-1,4′-piperidine]-3-yl)acetate], in that order: 19.9% and 100 to 1000 nM.
As to `O=C1NC2(CCN(C(=O)/C=C/c3ccccc3C(F)(F)F)CC2)c2c(Cl)cc(Cl)cc21` [EXAMPLE 29, (E)-5,7-dichloro-1′-(3-(2-(trifluoromethyl)phenyl)acryloyl)spiro[isoindoline-1,4′-piperidin]-3-one], the inhibition at 0.111 µM amounted to 94.2% and the concentration for half-maximal inhibition (IC50) is less than 100 nM.
On to `O=C(O)CC1CC2(CCN(C(=O)CCc3ccccc3C(F)(F)F)CC2)c2c(Cl)cccc21` (centres unmarked) [EXAMPLE 73, 2-(7-chloro-1′-(3-(2-(trifluoromethyl)phenyl)propanoyl)-2,3-dihydrospiro[indene-1,4′-piperidine]-3-yl)acetic acid], for which the inhibition at 0.1 µM is 96.6%, at 0.111 µM the inhibition was 95.4% and the IC50 is less than 100 nM.
As for `COc1ccc2c(c1)CCNC21CCN(C(=O)CCc2ccccc2C(F)(F)F)CC1` [EXAMPLE 62, 1-(6-methoxy-3,4-dihydro-2H-spiro[isoquinoline-1,4′-piperidine]-1′-yl)-3-(2-(trifluoromethyl)phenyl)propan-1-one], the inhibition at 0.111 µM was 87.2% and the IC50 is less than 100 nM.
The like results for `CCOc1ccccc1CNC(=O)N1CCC2(CC1)CC(CC(=O)O)c1cccc(Br)c12` (centres unmarked) [EXAMPLE 84, 2-(7-bromo-1′-(2-ethoxybenzylcarbamoyl)-2,3-dihydrospiro[indene-1,4′-piperidine]-3-yl)acetic acid] were, in that order, 42.6% and 100 to 1000 nM.
For `CCOC(=O)CC1CC2(CCN(C(=O)NCc3ccccc3OCC)CC2)c2c(Br)cccc21` (centres unmarked) [EXAMPLE 82, Ethyl 2-(7-bromo-1′-(2-ethoxybenzylcarbamoyl)-2,3-dihydrospiro[indene-1,4′-piperidine]-3-yl)acetate], in that order: 28.6% and 100 to 1000 nM.
On to `CCOC(=O)CC1CC2(CCN(C(=O)CCc3ccccc3C(F)(F)F)CC2)c2c(Br)cccc21` (centres unmarked) [EXAMPLE 56, Ethyl 2-(7-bromo-1′-(3-(2-(trifluoromethyl)phenyl)propanoyl)-2,3-dihydrospiro[indene-1,4′-piperidine]-3-yl)acetate], for which at 0.111 µM the inhibition was 92.7% and the concentration for half-maximal inhibition (IC50) is less than 100 nM.
For `CN1C(=O)C2(CCN(C(=O)/C=C/c3ccccc3C(F)(F)F)CC2)c2cc(C(=O)O)ccc21` [EXAMPLE 33, (E)-1-methyl-2-oxo-1′-(3-(2-(trifluoromethyl)phenyl)acryloyl)spiro[indoline-3,4′-piperidine]-5-carboxylic acid], in that order: 31.5% and 100 to 1000 nM.
For `NC(=O)CC1CC2(CCN(C(=O)CCc3ccccc3C(F)(F)F)CC2)c2c(Cl)cccc21` (centres unmarked) [EXAMPLE 80, 2-(7-chloro-1′-(3-(2-(trifluoromethyl)phenyl)propanoyl)-2,3-dihydrospiro[indene-1,4′-piperidine]-3-yl)acetamide], in that order: 95.1% and less than 100 nM.
For `O=C1Cc2ccccc2C2(CCN(C(=O)/C=C/c3ccccc3C(F)(F)F)CC2)N1` [EXAMPLE 42, (E)-1′-(3-(2-(trifluoromethyl)phenyl)acryloyl)-2H-spiro[isoquinoline-1,4′-piperidin]-3(4H)-one], in that order: 79.3% and less than 100 nM.
`CCOC(=O)CC1CC2(CCN(C(=O)NCc3ccccc3S(C)(=O)=O)CC2)c2c(Br)cccc21` (centres unmarked) [EXAMPLE 93, Ethyl 2-(7-bromo-1′-(2-(methylsulfonyl)benzylcarbamoyl)-2,3-dihydrospiro[indene-1,4′-piperidine]-3-yl)acetate]: testing at 0.111 µM gave an inhibition of 18.5% and the concentration for half-maximal inhibition (IC50) lay within 100 to 1000 nM.
As to `CCOC(=O)CC1CC2(CCN(C(=O)/C=C/c3ccccc3C(F)(F)F)CC2)c2c(Br)cccc21` (racemic) [EXAMPLE 1, (±)-(E)-ethyl 2-(7-bromo-1′-(3-(2-(trifluoromethyl)phenyl)acryloyl)-2,3-dihydrospiro[indene-1,4′-piperidine]-3-yl)acetate], the inhibition at 0.1 µM came out at 94.9%, 0.111 µM produced 89.4% inhibition and the IC50 is less than 100 nM.

The values above are taken from patent publication US8383629B2, “Inhibitors of 11β-hydroxysteroid dehydrogenase type 1” (Vitae Pharmaceuticals, Inc., priority 2008, dated 2013).
